Laboratory results as given in patent US7423019B2, “Agent for inducing conversion of intestinal cells into insulin-producing cells and antidiabetic drug” (Ajinomoto Co., Inc., priority 2003, dated 2008).
Entries after “also recorded” stand apart in the source; their conditions may differ.

Experiments:
[1] = test system: preproinsulin I and preproinsulin II mRNA; experiment: Insulin gene expression in organs of GLP-1(1-37)-administered STZ diabetes model rat (RT-PCR); format: in vivo; settings: 80 μg/head i.p. once a day for ten days, 42nd day
Method: GLP-1(1-37) was confirmed to have the blood sugar decrease effect, so that the presence or absence of insulin production in the intestine of the GLP-1(1-37) administered group was determined by the method described below. GLP-1(1-37)(80 μg/head) or PBS was intraperitoneally administered to each of 6 Wistar male rats once a day over a ten-day […] period from day 2 to 12. On the 7th day of the administration (9-day old), 75 mg/kg of STZ was subcutaneously administered to induce diabetes. In order to prepare normal controls, some PBS-administered rats were administered citrate buffer instead of STZ. Subsequently, the rats were allowed to ingest feed and water freely. On the 42nd day, autopsy was performed to collect the pancreas, stomach, intestine, and lung. After RNA was prepared from each organ using ISOGEN (NIPPONGENE), mRNA of preproinsulin I and mRNA of preproinsulin II were quantified by the RT-PCR method. Oligonuculeotides shown in SEQ ID NOS: 24 and 25 were used for preproinsulin I, and oligonuculeotides shown in SEQ ID NOS: 26 and […] were used for preproinsulin II as PCR primers.

diabetes model mouse = experiment: Transplanting cultured jejunum into STZ diabetes model mouse, blood sugar level; format: in vivo
Method: (§1) The jejunum collected from a 14.5-day embryonal mouse was embedded in type I collagen gel (Nitta Gelatin Inc.) and was then grown in organ culture in the presence of 50 nM GLP-1(1-37) and 50 nM PDGF (Platelet Derived Growth Factor). The amount of insulin in the culture medium was determined using a mouse insulin-detecting kit (Shibayagi) according to the attached protocol.
The jejunum at the second day from the start of the organ culture was transplanted in the abdominal cavity of a diabetes model mouse. The mouse was changed to a type I diabetes model by the administration of 200 mg/kg streptozotocin (hereinafter, referred to as “STZ”) three days before the transplantation, and the blood sugar level of the mouse was 300 to 350 mg/dl. Similarly, jejunal cells cultured in the absence of GLP-1 (1-37) were transplanted into a diabetes model mouse.

jejunal cells = experiment: Comparison between GLP-1 and other growth factors, RT-PCR in jejunal cells; format: cell-based, mouse; settings: GLP-1(1-37) 10 nm/l with activin A, beta cellulin, HGF, EGF; 8 days
Method: In the presence or absence of GLP-1(1-37) (10 nm/l), jejunal cells were cultured by the same way as that of paragraph <1>, except that activin A, beta cellulin, hepatocyte growth factor (HGF), and epidermal growth factor (EGF), which had been reported to control the growth and differentiation of secretory cells in the pancreas, were added. Then, the expression amounts of various kinds of genes were analyzed (a culture period of 8 days).

STZ diabetes model rat = experiment: Blood sugar decrease effect on STZ diabetes model rat; format: in vivo
Method: GLP-1 (1-37) (80 μg/head) or PBS was intraperitoneally administered to a Wistar male rat once a day over a ten-day period from day 2-12 after birth. On the 7th day of the administration (9-day old), 75 mg/kg of STZ was subcutaneously administered to induce diabetes. In order to prepare normal controls, some PBS-administered rats were administered citrate buffer instead of STZ. Subsequently, the rats were allowed to ingest feed and water freely. In the 42nd day, blood of each rat was drawn from the tail vein and the blood sugar level was measured. The measurement of the blood sugar level was performed using the whole blood sample by the glucose oxidase method in accordance with a general method.

[2] = background art; cited from earlier work
[3] = test system: pancreas, stomach, liver, and duodenal cells; experiment: Primary culture of embryonal mouse pancreas, stomach, liver and duodenal cells, double stain with antibodies to insulin and glucagon; format: cell-based; settings: 10 nmol/l, cultured 8 days
Method: (§2) Cells originating from various kinds of tissues of a 17.5 day-old embryonal mouse were divided into a group added with GLP-1(1-37) (10 nmol/l) or GLP-1(7-37) (10 nmol/l) and a non-addition control group, and were then cultured. After the cells had been cultured for 8 days, a double stain was performed using antibodies to insulin and glucagon. Specifically, the process was performed as follows.
(§3) Specimens of pancreas, liver, stomach, duodenum, and small intestine (including the jejunum, ileum, and colon) tissues were collected from a 17.5 day-old C57BL/6 embryonal mouse under a microscope. Then, those tissues were immersed in a Hanks solution (Hanks Balanced Solution, Gibco BRL, Co., Ltd., without containing Ca) containing 5 mM of CaCl2 (pH 7.4) and 0.1% of collagenase, and were then incubated at 37° C. for 10 to 20 minutes, followed by gently pipetting for digestion, respectively.
The obtained cells were washed with a culture medium and then inoculated in a 6-well plate for tissue culture at a cell density of 5×10^4 cells/cm^2. After 24 hours from the start of the culture, GLP-1(1-37) or GLP-1(7-37) was added to the culture. […]

[4] = test system: cultured intestinal cells; experiment: RT-PCR gene expression in organ culture of jejunum, concentration-dependent effects; format: cell-based, mouse; settings: 8 days
Method: Using a quantitative PCR method, the effects of GLP-1(1-37) on the cultured intestinal cells were analyzed in detail as described below.
Four concentrations of GLP-1(1-37), 0, 5, 10, and 50 nmol/l, were prepared and the organ culture of jejunum was performed by the same way as that of Example 3. After the jejunum had been cultured for 8 days, analyzed using the RT-PCR were the expression amounts of insulin genes (preproinsulin I and preproinsulin II), transcription factor group [neurogenin 3 (ngn3), neuroD/BETA 2, pax-4, Nkx 6.1, and hepatocyte nuclear factor 6 (HNF-6)] that controls the differentiation of secretory cells in the pancreas, a GLP-1 receptor (GLP-1 R), preproglucagon, pancreas duodenal homobox 1 (pdx-1), and hypoxanthine phosphoribosyl transferase (HPRT) as a positive control.
The RT-PCR was performed according to the method described in the literature (Hepatology, 32: 1230-1239) using primers. The primers used herein were as follows.
GLP-1R (SEQ ID NOS: 3 and 4), preproinsulin 1 (SEQ ID NOS: 5 and 6), preproinsulin II (SEQ ID NOS: 7 and 8), preproglucagon (SEQ ID NOS: 9 and 10), pdx-1 (SEQ ID NOS: 11 and 12), ngn3 (SEQ ID NOS: 13 and 14), neuroD (SEQ ID NOS: 15 and 16), pax-4 (SEQ ID NOS: 17 and 18), Nkx 6.1 (SEQ ID NOS: 19 and 20), HNF-6 (SEQ ID NOS: 21 and 22), and HPRT (SEQ ID NOS: 23 and 24).

intestinal cells = experiment: Primary culture of embryonal mouse intestinal cells, double stain with antibodies to insulin and glucagon; format: cell-based; settings: 10 nmol/l, cultured 8 days; for generation of insulin-positive cells in intestinal cells: 17.5 day-old embryonal mouse cells
Method: as §2, §3
The obtained cells were washed with a culture medium and then inoculated in a 6-well plate for tissue culture at a cell density of 5×10^4 cells/cm^2. After 24 hours from the start of the culture, GLP-1(1-37) or GLP-1(7-37) was added to the culture. Furthermore, after the cells had been continuously cultured for 8 days, the cells were washed three times with phosphate buffer (hereinafter, referred to as “PBS”) and then fixed by immersing in a 4% paraformaldehyde-phosphate buffer for 5 minutes and a 25% acetone/methanol solution for 1 minute. It should be noted that GLP-1(1-37) and GLP-1(7-37) were purchased from SIGMA.
Subsequently, each well was washed with 0.05% Tween 20/PBS, followed by immersing in 0.2% Triton X100 for 1 hour. After that, anti-insulin goat antibody (Santa Cruz) and anti-glucagon mouse antibody (Sigma) were added to each well, and the whole was incubated at 4° C. for 16 hours, followed by washing the well. Then, Alexa 488-binding anti-goat IgG donkey antibody (Molecular Probes) or Cy3-binding anti-mouse IgG donkey antibody (Jackson Immuno Research Laboratories Inc.) was added to each well, and the whole was then incubated at 4° C. for 4 hours. […]

[5] = test system: intestinal epithelium cells; experiment: In vivo GLP-1(1-37) administration to pregnant mouse, insulin/glucagon immunostain of newborn intestine sections; settings: 10 nmol i.p. to pregnant mouse daily, embryonal day 10.5 to 17.5
Method: GLP-1(1-37) (10 nmol) was intraperitoneally injected to a pregnant mouse at the same time every day over a seven-day embryonal period from day 10.5 to 17.5. After birth, tissue sections from the small and large intestine of a newborn mouse were double-stained using antibodies to insulin and glucagon. Specifically, the double stain was performed as follows.
Each tissue of the small intestine (including jejunum and ileum) and the large intestine was immersed overnight in a 4% paraformaldehyde-phosphate buffer at 4° C., followed by embedding in O.C.T. compound to prepare section samples. The section samples were dried and fixed with acetone. Subsequently, the section samples were dried overnight at −20° C. and then washed with PBS-Tween 20, followed by immersing in 0.2% Triton X100 for 1 hour. After that, using anti-insulin goat antibody (Santa Cruz) or anti-glucagon mouse antibody (Sigma), and Alexa 488-binding anti-goat IgG donkey antibody or Cy3-binding anti-mouse IgG donkey antibody, the immunostain of insulin and glucagon was carried out, respectively.

jejunum = experiment: Organ culture of embryonal mouse jejunum, insulin in the culture medium; format: cell-based; settings: 50 nM GLP-1(1-37) with 50 nM PDGF, jejunum of 14.5-day embryonal mouse in collagen gel
Method: as §1

GLP-1R = experiment: Experiment of inhibiting GLP-1 function with exendin (9-39), RT-PCR in jejunal cells; format: cell-based, mouse; settings: 8 days
Method: Jejunal cells were cultured by the same way as that of paragraph <1>, except that 0, 10, 100, or 1,000 nmol/l of exendin (9-39), which was a GLP-1R antagonist, was simultaneously added together with GLP-1(1-37) (10 nmol/l). Then, the expression amounts of the insulin gene and other various kinds of genes were analyzed (a culture period of 8 days).

[6] = STZ mouse transplanted with jejunal cells treated with GLP-1(1-37), baseline 300 to 350 mg/dl

Substance: GLP-1(1-37): 37-amino acid peptide having the amino acid sequence from position 92 to position 128 of a preproglucagon peptide; purchased from SIGMA (HDEFERHAEGTFTSDVSSYLEGQAAKEFIAWLVKGRG; Glucagon-like peptide 1; UniProt P01275 92-128, looked up, fragment)
- expression of preproinsulin genes in the pancreas, stomach, and lung [1]: no expression was observed
- expressions of preproinsulin I gene and preproinsulin II gene in the intestine [1]: significantly increased
- change of blood sugar level after transplantation (diabetes model mouse; STZ mouse (300 to 350 mg/dl) transplanted with jejunal cells treated with GLP-1(1-37)): decrease in blood sugar level was observed
- blood sugar level after eight weeks from the transplantation (diabetes model mouse; [6]): 75 to 100 mg/dL
- blood sugar level after four weeks from the transplantation (diabetes model mouse; [6]): 125 to 225 mg/dL
- expression of preproglucagon and pdx-1 (jejunal cells): no change
- expression of preproinsulin I, preproinsulin II, and ngn3 (jejunal cells): high expression
- blood sugar level compared to diabetes control group (STZ diabetes model rat; 80 μg/head i.p. once a day for ten days, 42nd day): decreased significantly
- blood sugar level (STZ diabetes model rat; 80 μg/head i.p. once a day, day 2-12 after birth, STZ 75 mg/kg s.c., measured 42nd day, n = 6): 430 ± 89 ^##
- activity as incretin [2]: weak activity
- number of insulin-positive cells and glucagon-positive cells versus non-addition group [3]: no difference
- expression of GLP-1R, preproglucagon and pdx-1 versus non addition group ([4]; 0, 5, 10, 50 nmol/l): no change in expression
- expression of transcription factor group controlling differentiation of secretory cells in the pancreas ([4]; 0, 5, 10, 50 nmol/l): increase in expression
- expression of the insulin gene (preproinsulin I, preproinsulin II) ([4]; 5 nmol/l, FIG. 1): expression of the insulin gene was observed
- glucagon staining of the insulin-positive cells (intestinal cells): strongly glucagon-positive
- generation of insulin-positive cells in intestinal cells (intestinal cells): insulin-positive cells were only observed; also recorded: effects on the induction
- insulin-positive intestinal epithelium cells in small and large intestine of newborn mouse [5]: many insulin-positive intestinal epithelium cells were observed
- number of insulin positive cells, small intestine compared with large intestine [5]: higher
- insulin secretion into the culture medium (jejunum): insulin secretion was observed

Substance: GLP-1(7-37) (HAEGTFTSDVSSYLEGQAAKEFIAWLVKGRG; Glucagon-like peptide 1; UniProt P01275 98-128, looked up, fragment) [reference compound]
- number of insulin-positive cells and glucagon-positive cells versus non-addition group [3]: no difference
- generation of insulin-positive cells in intestinal cells (intestinal cells): can not effect on the induction

Substance: exendin (9-39)
- expression of preproinsulin I, preproinsulin II, and ngn3 (GLP-1R; exendin (9-39) 10, 100 or 1,000 nmol/l added together with GLP-1(1-37) 10 nmol/l): hardly observed
- expression of preproglucagon and pdx-1 (GLP-1R; exendin (9-39) added together with GLP-1(1-37) 10 nmol/l): not influenced
